In patent US11459323B2, “Monocyclic β-lactam compound for treating bacterial infection” (MEDSHINE DISCOVERY INC., priority 2018, dated 2022):
In brackets after ≈: the same amount, converted by molar mass. Where two headings read alike, the source gives them in different places.

Assays:
Assay type in all cases: cell-based
[1] = test system: Acinetobacter baumannii C357; test: MIC on clinically isolated bacteria
From the text: (§1) Twenty-five strains of clinically isolated Acinetobacter baumannii and twenty-seven strains of Pseudomonas aeruginosa were respectively selected and used to determine the minimum inhibitory concentration (MIC) of the compounds by micro-liquid dilution method according to the Institute of Clinical and Laboratory Standard (CLSI) requirements.

[2] = test system: Pseudomonas aeruginosa W32; test: MIC on clinically isolated bacteria
From the text: as §1

[3] = test system: Pseudomonas aeruginosa W29; test: MIC on clinically isolated bacteria
From the text: as §1

[4] = test system: Acinetobacter baumannii C408; test: MIC on clinically isolated bacteria
From the text: as §1

Aeruginosa ATCC27853 = test: MIC on clinically isolated bacteria; conditions: Pseudomonas aeruginosa
From the text: as §1

[5] = test system: Acinetobacter baumannii C181; test: MIC on clinically isolated bacteria
From the text: as §1

[6] = test system: Pseudomonas aeruginosa C745; test: MIC on clinically isolated bacteria
From the text: as §1

[7] = test system: Pseudomonas aeruginosa M4; test: MIC on clinically isolated bacteria
From the text: as §1

[8] = test system: Pseudomonas aeruginosa W23; test: MIC on clinically isolated bacteria
From the text: as §1

[9] = test system: Pseudomonas aeruginosa W20; test: MIC on clinically isolated bacteria
From the text: as §1

[10] = test system: Acinetobacter baumannii C281; test: MIC on clinically isolated bacteria
From the text: as §1

[11] = test system: Pseudomonas aeruginosa W47; test: MIC on clinically isolated bacteria
From the text: as §1

E. coli ATCC 25922 = test: MIC by micro-liquid dilution method (CLSI); conditions: Escherichia coli, ATCC25922
[12] = test system: Acinetobacter baumannii ATCC-BAA-1799; test: MIC on Acinetobacter baumannii strains; conditions: ATCCBAA1799
From the text: (§2) Twelve strains of Acinetobacter baumannii, A. baumannii ATCC 17978 (ATCC-BAA-1605, ATCC-BAA-1789, ATCC-BAA-1790, ATCC-BAA-1791, ATCC-BAA-1792, ATCC-BAA-1793, ATCC-BAA-1794, ATCC-BAA-1795, ATCC-BAA-1799, ATCC-BAA-1800, ATCC 19606, ATCC 17978) were used to determine the minimum inhibitory concentration (MIC) of the compounds by micro-liquid dilution method according to the Institute of Clinical and Laboratory Standard (CLSI) requirements.

[13] = test system: Acinetobacter baumannii ATCC-BAA-1791; test: MIC on Acinetobacter baumannii strains; conditions: ATCCBAA1791
From the text: as §2

[14] = test system: Acinetobacter baumannii ATCC-BAA-1605; test: MIC on Acinetobacter baumannii strains; conditions: ATCCBAA1605, ATCC-BAA-1605, read-out: MIC
From the text: as §2

[15] = test system: Acinetobacter baumannii ATCC-BAA-1794; test: MIC on Acinetobacter baumannii strains; conditions: ATCCBAA1794
From the text: as §2

[16] = test system: Acinetobacter baumannii ATCC-BAA-1800; test: MIC on Acinetobacter baumannii strains; conditions: ATCCBAA1800
From the text: as §2

[17] = test system: Acinetobacter baumannii ATCC-BAA-1795; test: MIC on Acinetobacter baumannii strains; conditions: ATCCBAA1795
From the text: as §2

[18] = test system: Acinetobacter baumannii ATCC-BAA-1792; test: MIC on Acinetobacter baumannii strains; conditions: ATCCBAA1792
From the text: as §2

[19] = test system: Acinetobacter baumannii ATCC 17978; test: MIC on Acinetobacter baumannii strains; conditions: ATCC17978
From the text: as §2

[20] = test system: Acinetobacter baumannii ATCC-BAA-1790; test: MIC on Acinetobacter baumannii strains; conditions: ATCCBAA1790
From the text: as §2

[21] = test system: Acinetobacter baumannii ATCC-BAA-1793; test: MIC on Acinetobacter baumannii strains; conditions: ATCCBAA1793
From the text: as §2

[22] = test system: Acinetobacter baumannii ATCC 19606; test: MIC on Acinetobacter baumannii strains; conditions: ATCC19606
From the text: as §2

[23] = test system: Acinetobacter baumannii ATCC-BAA-1789; test: MIC on Acinetobacter baumannii strains; conditions: ATCCBAA1789
From the text: as §2

P. aeruginosa ATCC 35151 = test: MIC by micro-liquid dilution method (CLSI); conditions: Pseudomonas aeruginosa, ATCC35151
[24] = Acinetobacter baumannii C357, read-out: Minimum Inhibitory Concentration (MIC)
[25] = Acinetobacter baumannii C408, read-out: Minimum Inhibitory Concentration (MIC)
[26] = Aeruginosa ATCC27853, read-out: MIC
[27] = Acinetobacter baumannii C181, read-out: Minimum Inhibitory Concentration (MIC)
[28] = Acinetobacter baumannii C281, read-out: Minimum Inhibitory Concentration (MIC)

MIC [1, 24] | MIC ([2]; read-out: MIC) | MIC ([3]; read-out: MIC) | MIC [4, 25] | MIC (Aeruginosa ATCC27853; [26]) | MIC [5, 27] | MIC ([6]; read-out: MIC) | MIC ([7]; read-out: MIC) | MIC ([8]; read-out: MIC) | MIC ([9]; read-out: MIC) | MIC [10, 28] | MIC ([11]; read-out: MIC) | SMILES | other results
– | – | – | – | – | – | – | – | – | – | – | – | CN(C)c1cc(NC(=O)CNC(C)(C)C)c(O)c2c1C[C@H]1C[C@H]3[C@H](N(C)C)C(O)=C(C(N)=O)C(=O)[C@@]3(O)C(O)=C1C2=O [Tigecycline, reference compound] | MIC ([1]; Acinetobacter baumannii, C357, read-out: Minimum Inhibitory Concentration (MIC)): 1 µg/mL (≈ 1.71 µM); MIC [2]: 16 µg/mL (≈ 27.3 µM); MIC [3]: 16 µg/mL (≈ 27.3 µM); MIC ([4]; Acinetobacter baumannii, C408, read-out: Minimum Inhibitory Concentration (MIC)): 1 µg/mL (≈ 1.71 µM); MIC (Aeruginosa ATCC27853; ATCC27853): 8 µg/mL (≈ 13.7 µM); MIC ([5]; Acinetobacter baumannii, C181, read-out: Minimum Inhibitory Concentration (MIC)): 1 µg/mL (≈ 1.71 µM); MIC [6]: > 16 µg/mL; MIC [7]: 4 µg/mL (≈ 6.83 µM); MIC [8]: 16 µg/mL (≈ 27.3 µM); MIC [9]: 16 µg/mL (≈ 27.3 µM); MIC ([10]; Acinetobacter baumannii, C281, read-out: Minimum Inhibitory Concentration (MIC)): 1 µg/mL (≈ 1.71 µM); MIC [11]: 16 µg/mL (≈ 27.3 µM)
2 µg/mL (≈ 2.87 µM) | 1 µg/mL (≈ 1.43 µM) | 0.5 µg/mL (≈ 0.717 µM) | 2 µg/mL (≈ 2.87 µM) | 0.25 µg/mL (≈ 0.358 µM) | 2 µg/mL (≈ 2.87 µM) | 8 µg/mL (≈ 11.5 µM) | 1 µg/mL (≈ 1.43 µM) | 0.25 µg/mL (≈ 0.358 µM) | 0.5 µg/mL (≈ 0.717 µM) | 2 µg/mL (≈ 2.87 µM) | 0.5 µg/mL (≈ 0.717 µM) | CC1(C)[C@H](NC(=O)/C(=N\O[C@@H](COc2ccc3c(c2)CN(C(=N)NCCCCN)C3)C(=O)O)c2csc(N)n2)C(=O)N1OS(=O)(=O)O [Compound 36] | –
8 µg/mL (≈ 11.7 µM) | 8 µg/mL (≈ 11.7 µM) | 8 µg/mL (≈ 11.7 µM) | 8 µg/mL (≈ 11.7 µM) | 1 µg/mL (≈ 1.46 µM) | > 16 µg/mL | 8 µg/mL (≈ 11.7 µM) | 0.25 µg/mL (≈ 0.365 µM) | 1 µg/mL (≈ 1.46 µM) | 8 µg/mL (≈ 11.7 µM) | 8 µg/mL (≈ 11.7 µM) | 8 µg/mL (≈ 11.7 µM) | CC1(C)[C@H](NC(=O)/C(=N\O[C@@H](COc2ccc3c(c2)CN(C(=N)NOCCN)C3)C(=O)O)c2csc(N)n2)C(=O)N1OS(=O)(=O)O [Compound 43] | –
8 µg/mL (≈ 11.2 µM) | 16 µg/mL (≈ 22.4 µM) | 16 µg/mL (≈ 22.4 µM) | 8 µg/mL (≈ 11.2 µM) | 2 µg/mL (≈ 2.81 µM) | > 16 µg/mL | > 16 µg/mL | 0.25 µg/mL (≈ 0.351 µM) | 4 µg/mL (≈ 5.61 µM) | 16 µg/mL (≈ 22.4 µM) | 16 µg/mL (≈ 22.4 µM) | 16 µg/mL (≈ 22.4 µM) | CC1(C)[C@H](NC(=O)/C(=N\O[C@@H](COc2ccc3c(c2)CN(C(=N)N(CCN)CCN)C3)C(=O)O)c2csc(N)n2)C(=O)N1OS(=O)(=O)O [Compound 45] | –

SMILES | MIC [1, 24] | MIC ([2]; read-out: MIC) | MIC ([3]; read-out: MIC) | MIC [4, 25] | MIC (Aeruginosa ATCC27853; [26]) | MIC [5, 27] | MIC ([6]; read-out: MIC) | MIC ([7]; read-out: MIC) | MIC ([8]; read-out: MIC) | MIC ([9]; read-out: MIC) | MIC [10, 28] | MIC ([11]; read-out: MIC) | other results
C[C@@H](O)[C@H]1C(=O)N2C(C(=O)O)=C(S[C@@H]3CN[C@H](C(=O)N(C)C)C3)[C@H](C)[C@H]12 [Meropenem, reference compound] | 64 µg/mL (≈ 167 µM) | 4 µg/mL (≈ 10.4 µM) | 4 µg/mL (≈ 10.4 µM) | 128 µg/mL (≈ 334 µM) | < 0.25 µg/mL | 128 µg/mL (≈ 334 µM) | 32 µg/mL (≈ 83.4 µM) | 0.5 µg/mL (≈ 1.3 µM) | 16 µg/mL (≈ 41.7 µM) | 8 µg/mL (≈ 20.9 µM) | 64 µg/mL (≈ 167 µM) | 4 µg/mL (≈ 10.4 µM) | MIC (E. coli ATCC 25922): ≤ 0.125 µg/mL; MIC [12]: 128 µg/mL (≈ 334 µM); MIC [13]: 64 µg/mL (≈ 167 µM); MIC [14]: 64 µg/mL (≈ 167 µM); MIC [15]: > 128 µg/mL; MIC [16]: > 128 µg/mL; MIC [17]: 4 µg/mL (≈ 10.4 µM); MIC [18]: 128 µg/mL (≈ 334 µM); MIC [19]: 0.5 µg/mL (≈ 1.3 µM); MIC [20]: 128 µg/mL (≈ 334 µM); MIC [21]: > 128 µg/mL; MIC [22]: 2 µg/mL (≈ 5.22 µM); MIC [23]: 64 µg/mL (≈ 167 µM); MIC (P. aeruginosa ATCC 35151): ≤ 0.125 µg/mL
